Laboratory results taken from ChEMBL document CHEMBL3588794, “Discovery of LRRK2 inhibitors using sequential in silico joint pharmacophore space (JPS) and ensemble docking” (Bioorg Med Chem Lett, 2015).

Legend:
[1] = target: Leucine-rich repeat serine/threonine-protein kinase 2 (Homo sapiens, UniProt Q5S007, G2019S); assay: Inhibition of LRRK2 G2019S mutant (unknown origin)
[2] = target: Leucine-rich repeat serine/threonine-protein kinase 2 (Homo sapiens, UniProt Q5S007); assay: Inhibition of wild type LRRK2 (unknown origin) assessed as inhibition of LRRKtide phosphorylation after 120 mins by radiometric assay in presence of [gamma-33P]-ATP
[3] = target: Tyrosine-protein kinase JAK2 (Homo sapiens) (UniProt O60674); assay: Inhibition of JAK2 JH1 catalytic domain (unknown origin) at 10 uM relative to control
Sequence of Tyrosine-protein kinase JAK2 (Homo sapiens) (O60674 whole entry, the tested form may be a part): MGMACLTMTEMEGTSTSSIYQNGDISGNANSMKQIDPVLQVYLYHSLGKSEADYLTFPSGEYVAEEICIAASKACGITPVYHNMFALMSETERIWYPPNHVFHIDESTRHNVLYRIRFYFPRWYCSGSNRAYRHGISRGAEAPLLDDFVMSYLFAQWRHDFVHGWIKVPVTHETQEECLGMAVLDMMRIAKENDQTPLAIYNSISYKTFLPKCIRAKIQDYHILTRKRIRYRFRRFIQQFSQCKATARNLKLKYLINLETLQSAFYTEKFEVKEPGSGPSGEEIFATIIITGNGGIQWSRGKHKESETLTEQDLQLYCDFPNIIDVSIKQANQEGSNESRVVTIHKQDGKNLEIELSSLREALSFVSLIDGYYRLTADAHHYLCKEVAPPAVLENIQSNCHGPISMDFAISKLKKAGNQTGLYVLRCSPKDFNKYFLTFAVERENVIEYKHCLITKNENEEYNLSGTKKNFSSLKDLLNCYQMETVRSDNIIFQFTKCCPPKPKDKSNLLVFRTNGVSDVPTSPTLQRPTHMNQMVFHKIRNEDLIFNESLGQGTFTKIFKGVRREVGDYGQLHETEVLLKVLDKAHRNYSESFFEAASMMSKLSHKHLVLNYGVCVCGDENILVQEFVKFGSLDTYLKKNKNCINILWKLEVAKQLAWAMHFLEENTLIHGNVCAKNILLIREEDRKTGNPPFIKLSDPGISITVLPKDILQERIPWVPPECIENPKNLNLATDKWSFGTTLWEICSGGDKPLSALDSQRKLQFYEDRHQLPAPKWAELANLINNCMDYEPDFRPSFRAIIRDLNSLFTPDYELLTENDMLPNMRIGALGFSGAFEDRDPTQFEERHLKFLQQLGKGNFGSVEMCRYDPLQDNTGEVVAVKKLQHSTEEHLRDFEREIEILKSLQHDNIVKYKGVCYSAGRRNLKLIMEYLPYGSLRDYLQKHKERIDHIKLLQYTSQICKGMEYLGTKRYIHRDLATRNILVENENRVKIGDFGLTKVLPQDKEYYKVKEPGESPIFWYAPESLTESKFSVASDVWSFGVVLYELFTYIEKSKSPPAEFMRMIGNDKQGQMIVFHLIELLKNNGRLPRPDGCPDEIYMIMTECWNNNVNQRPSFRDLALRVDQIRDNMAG

Sequence of Leucine-rich repeat serine/threonine-protein kinase 2 (Homo sapiens, UniProt Q5S007) (Q5S007 whole entry, the tested form may be a part): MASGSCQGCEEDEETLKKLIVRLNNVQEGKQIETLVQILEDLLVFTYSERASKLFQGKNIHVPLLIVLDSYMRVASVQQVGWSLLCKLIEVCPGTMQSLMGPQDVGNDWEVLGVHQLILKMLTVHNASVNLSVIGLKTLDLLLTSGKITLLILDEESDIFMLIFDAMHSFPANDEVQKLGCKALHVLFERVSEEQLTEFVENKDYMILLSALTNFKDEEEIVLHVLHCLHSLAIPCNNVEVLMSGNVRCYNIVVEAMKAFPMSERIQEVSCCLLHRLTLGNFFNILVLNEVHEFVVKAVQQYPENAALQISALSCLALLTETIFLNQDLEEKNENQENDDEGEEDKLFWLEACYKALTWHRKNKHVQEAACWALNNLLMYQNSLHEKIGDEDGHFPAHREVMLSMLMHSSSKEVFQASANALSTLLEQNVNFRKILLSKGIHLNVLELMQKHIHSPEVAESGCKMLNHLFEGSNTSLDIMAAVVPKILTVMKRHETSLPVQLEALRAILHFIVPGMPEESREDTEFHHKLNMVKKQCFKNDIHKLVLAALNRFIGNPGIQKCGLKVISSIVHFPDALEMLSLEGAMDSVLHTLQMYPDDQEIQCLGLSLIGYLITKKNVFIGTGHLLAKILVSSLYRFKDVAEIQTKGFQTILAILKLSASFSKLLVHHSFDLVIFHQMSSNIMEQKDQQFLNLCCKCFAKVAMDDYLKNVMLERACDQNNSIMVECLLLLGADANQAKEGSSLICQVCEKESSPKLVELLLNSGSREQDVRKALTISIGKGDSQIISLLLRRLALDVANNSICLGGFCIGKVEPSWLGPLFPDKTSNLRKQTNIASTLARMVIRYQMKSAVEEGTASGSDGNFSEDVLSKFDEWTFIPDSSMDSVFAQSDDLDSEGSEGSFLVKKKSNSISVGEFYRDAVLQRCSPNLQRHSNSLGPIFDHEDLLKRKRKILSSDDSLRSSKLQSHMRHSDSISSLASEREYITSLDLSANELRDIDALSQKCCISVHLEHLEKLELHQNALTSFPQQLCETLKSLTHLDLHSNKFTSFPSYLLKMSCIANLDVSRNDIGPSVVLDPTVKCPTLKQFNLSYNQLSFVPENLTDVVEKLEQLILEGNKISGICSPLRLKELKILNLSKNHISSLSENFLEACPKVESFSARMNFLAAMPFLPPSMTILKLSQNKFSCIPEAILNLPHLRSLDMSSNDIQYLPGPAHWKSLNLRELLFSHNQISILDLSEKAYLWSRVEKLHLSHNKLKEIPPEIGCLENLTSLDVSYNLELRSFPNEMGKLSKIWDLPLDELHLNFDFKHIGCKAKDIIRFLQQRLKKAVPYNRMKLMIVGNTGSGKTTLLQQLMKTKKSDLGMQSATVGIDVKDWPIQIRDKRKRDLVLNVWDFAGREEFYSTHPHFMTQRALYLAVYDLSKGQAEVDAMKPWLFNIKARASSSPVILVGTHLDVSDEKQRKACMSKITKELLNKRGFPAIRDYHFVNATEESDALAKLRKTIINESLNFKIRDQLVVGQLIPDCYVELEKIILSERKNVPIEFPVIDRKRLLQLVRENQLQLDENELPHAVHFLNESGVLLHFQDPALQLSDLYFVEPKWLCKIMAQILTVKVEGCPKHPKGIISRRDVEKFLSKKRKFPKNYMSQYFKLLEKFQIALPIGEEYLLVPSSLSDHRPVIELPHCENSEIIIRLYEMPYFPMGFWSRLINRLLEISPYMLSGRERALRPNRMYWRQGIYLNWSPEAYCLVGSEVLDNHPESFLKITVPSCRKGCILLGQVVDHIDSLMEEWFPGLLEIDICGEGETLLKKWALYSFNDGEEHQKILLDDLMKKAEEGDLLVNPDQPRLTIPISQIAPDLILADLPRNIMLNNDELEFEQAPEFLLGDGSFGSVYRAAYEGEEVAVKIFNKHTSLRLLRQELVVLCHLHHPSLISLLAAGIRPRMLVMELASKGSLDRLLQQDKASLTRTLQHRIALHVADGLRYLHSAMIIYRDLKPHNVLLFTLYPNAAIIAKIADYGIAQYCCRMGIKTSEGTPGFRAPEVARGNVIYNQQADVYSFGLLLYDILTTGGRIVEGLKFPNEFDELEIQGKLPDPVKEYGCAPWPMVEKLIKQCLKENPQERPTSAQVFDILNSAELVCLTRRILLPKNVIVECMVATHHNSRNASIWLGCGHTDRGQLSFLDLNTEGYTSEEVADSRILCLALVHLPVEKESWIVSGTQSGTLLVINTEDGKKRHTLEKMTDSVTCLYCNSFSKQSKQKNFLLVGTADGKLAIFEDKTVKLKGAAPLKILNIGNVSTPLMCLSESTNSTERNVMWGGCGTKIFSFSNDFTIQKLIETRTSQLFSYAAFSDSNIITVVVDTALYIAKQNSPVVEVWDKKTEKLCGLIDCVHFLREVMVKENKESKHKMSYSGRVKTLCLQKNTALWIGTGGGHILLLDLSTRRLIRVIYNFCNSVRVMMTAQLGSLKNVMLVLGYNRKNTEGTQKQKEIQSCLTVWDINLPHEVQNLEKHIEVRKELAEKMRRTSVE
Sequence of Leucine-rich repeat serine/threonine-protein kinase 2 (Homo sapiens, UniProt Q5S007, G2019S) (Q5S007 whole entry G2019S): as the sequence (Q5S007 whole entry, the tested form may be a part) above, with G2019S counted along it

SMILES | IC50 [1] [µM] | IC50 [2] [µM] | inhibition [3] [%]
Cc1ccc(NC(=O)c2ccc(CN3CCNCC3)cc2)cc1Nc1nccc(-c2cccnc2)n1 | 3.3 | 4.6 | –
N#Cc1ccc(Nc2ccc3[nH]c(=O)[nH]c3c2)c([N+](=O)[O-])c1 | – | – | 74
O=C(NCCO)c1ccc(Nc2nc(-c3ccccc3)c3cc(Cl)ccc3n2)cc1 | 2 | 2.8 | –
CC(c1ccc(NC(=O)c2cc(C3CC3)[nH]n2)cc1)N1CCOCC1 (configuration not stated) | 1.9 | 4.8 | –
